Experimental data taken from patent US9341616B2, “Sweet taste receptor chimeric proteins and use thereof” (AJINOMOTO CO., INC., priority 2014, dated 2016).
Read-outs that look alike come from different tables or passages of the source. Residues, ends and D or L forms follow the SMILES beside them.

Target: hT1R2/T1R3mosaicA (UniProt Q8TE23+Q925D8, A12W/A31M/A558R/A588V/A645S/A698V/A702T/A793V/A807V/C582S/C678S/E16H/E725V/F14L/F29L/F541I/F612A/F622V/F695L/H728R/I36V/I60P/I617V/I706V/I740A/I803L/K30R/K555R/K565R/K818R/K827G/L17P/L560F/L684P/L735F/L823M/L825Q/M19T/M644L/M744T/N52R/N547G/N58S/N63T/N675D/P545F/P561R/P564S/P61V/Q32K/Q53S/Q550E/Q56R/Q611L/Q757R/Q795R/Q831P/R632Q/S22P/S45E/S576L/S595F/S610P/S635P/S637R/S679G/S717H/T46A/T50G/T542A/T663I/T694M/T813A/V573A/V584A/V718M/V723A/V729T/V738A/V805L/V812A/V821L/W599R/W676R/W824R/Y680C/Y794L)
Sequence (Q8TE23 20-839, stated change not applied): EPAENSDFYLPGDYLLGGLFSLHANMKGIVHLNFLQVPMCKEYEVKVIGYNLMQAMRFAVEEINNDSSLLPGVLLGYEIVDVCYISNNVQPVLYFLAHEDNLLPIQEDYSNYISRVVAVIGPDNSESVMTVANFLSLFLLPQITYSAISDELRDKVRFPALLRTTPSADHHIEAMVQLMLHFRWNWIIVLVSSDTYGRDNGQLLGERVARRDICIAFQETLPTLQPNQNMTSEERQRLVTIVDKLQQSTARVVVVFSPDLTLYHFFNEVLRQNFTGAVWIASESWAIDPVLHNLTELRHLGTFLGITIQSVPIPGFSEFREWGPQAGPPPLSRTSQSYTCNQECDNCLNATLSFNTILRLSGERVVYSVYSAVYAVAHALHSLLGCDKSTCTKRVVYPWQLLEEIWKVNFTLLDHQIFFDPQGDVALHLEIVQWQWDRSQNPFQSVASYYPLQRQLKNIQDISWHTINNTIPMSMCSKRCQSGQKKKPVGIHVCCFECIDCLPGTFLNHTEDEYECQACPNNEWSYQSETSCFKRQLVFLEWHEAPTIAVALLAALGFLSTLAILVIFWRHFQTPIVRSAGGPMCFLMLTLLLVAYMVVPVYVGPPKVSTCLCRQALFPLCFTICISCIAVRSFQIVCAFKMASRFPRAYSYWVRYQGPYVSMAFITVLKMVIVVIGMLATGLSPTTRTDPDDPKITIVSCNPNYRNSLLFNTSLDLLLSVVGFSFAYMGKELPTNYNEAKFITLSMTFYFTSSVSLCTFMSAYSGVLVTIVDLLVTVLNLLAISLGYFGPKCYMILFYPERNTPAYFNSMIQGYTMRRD
Sequence (Q925D8 with tags, fused parts or gaps with the stated changes limits assumed): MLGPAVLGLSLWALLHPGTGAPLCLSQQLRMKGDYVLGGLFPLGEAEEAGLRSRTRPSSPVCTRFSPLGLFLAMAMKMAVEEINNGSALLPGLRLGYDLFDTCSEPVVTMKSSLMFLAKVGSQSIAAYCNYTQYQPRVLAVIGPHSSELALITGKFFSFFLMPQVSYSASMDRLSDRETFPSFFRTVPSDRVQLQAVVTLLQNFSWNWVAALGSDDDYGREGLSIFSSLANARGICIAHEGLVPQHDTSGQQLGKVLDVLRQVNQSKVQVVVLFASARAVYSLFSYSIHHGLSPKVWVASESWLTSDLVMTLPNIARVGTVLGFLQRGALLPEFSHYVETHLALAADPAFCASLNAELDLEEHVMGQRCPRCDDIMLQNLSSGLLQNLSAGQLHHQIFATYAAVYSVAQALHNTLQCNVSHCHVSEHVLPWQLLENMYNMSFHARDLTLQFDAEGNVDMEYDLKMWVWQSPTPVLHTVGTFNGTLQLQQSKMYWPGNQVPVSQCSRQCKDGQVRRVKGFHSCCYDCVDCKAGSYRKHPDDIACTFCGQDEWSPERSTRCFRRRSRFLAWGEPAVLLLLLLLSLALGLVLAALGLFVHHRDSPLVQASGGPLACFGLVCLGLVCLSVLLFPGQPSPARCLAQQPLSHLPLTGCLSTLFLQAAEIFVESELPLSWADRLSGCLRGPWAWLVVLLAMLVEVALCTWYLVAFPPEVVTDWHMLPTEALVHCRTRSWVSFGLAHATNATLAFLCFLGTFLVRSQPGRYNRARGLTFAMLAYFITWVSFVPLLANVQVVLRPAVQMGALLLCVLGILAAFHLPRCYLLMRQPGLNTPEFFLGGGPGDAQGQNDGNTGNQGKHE
Details: HEK293E cells
[1] = Table 5, genes hT2/T3mA (hT1R2, T1R3mA)
[2] = Table 6, genes hT2/T1R3mA (hT1R2, T1R3mA)

Compound | S/N [1] | S/N [2]
COc1ccc(CCC(=O)c2c(O)cc(O[C@@H]3O[C@H](CO)[C@@H](O)[C@H](O)[C@H]3O[C@@H]3O[C@@H](C)[C@H](O)[C@@H](O)[C@H]3O)cc2O)cc1O [NHDC, neohesperidin dihydrochalcone] | 2.9 | 3.8
OC[C@H]1O[C@@](CO)(O[C@H]2O[C@H](CO)[C@@H](O)[C@H](O)[C@H]2O)[C@@H](O)[C@@H]1O [Sucrose, sucrose] | 2.6 | 2.3
O=C1NS(=O)(=O)c2ccccc21.[Na] [Saccharin Na, sodium saccharin] | 4.3 | 4.2
COC(=O)[C@H](Cc1ccccc1)NC(=O)[C@@H](N)CC(=O)O [Aspartame, aspartame] (HELM PEPTIDE1{D.F.[CO[*:1]]}$$$$V2.0) | 4.4 | 3.5
COC(=O)[C@H](Cc1ccccc1)NC(=O)[C@H](CC(=O)O)NCCCc1ccc(OC)c(O)c1 [Advantame, advantame] | 7.6 | 7.5
CC1=CC(=O)NS(=O)(=O)O1 [Acesulfame K, acesulfame potassium] | 3.7 | 3.7
COC(=O)[C@H](Cc1ccccc1)NC(=O)[C@H](CC(=O)O)NCCC(C)(C)C [Neotame, neotame] | 5.7 | 6.5
C[C@H](NC(=Nc1ccc(C#N)cc1)NCC(=O)O)c1ccccc1 [SC-45647, [3-[(S)-1-phenylethyl]-2-(4-cyanophenyl)guanidino]acetic acid] | 5.9 | 6.8
OC[C@H]1O[C@H](O[C@]2(CCl)O[C@H](CCl)[C@@H](O)[C@@H]2O)[C@H](O)[C@@H](O)[C@H]1Cl [Sucralose, sucralose] | 6.0 | 5.9
